Reference: patent publication US20240174618A1, “SUBSTITUTED (2-HETEROARYLOXYPHENYL)SULFONATES, SALTS THEREOF AND THEIR USE AS HERBICIDAL AGENTS” (Bayer Aktiengesellschaft, priority 2021, published 2024)

Assays:
Assay type in all cases: in vivo
[1] = test system: Amaranthus retroflexus (AMARE); assay: B. Herbicidal post-emergence efficacy, AMARE
Procedure: (§1) Seeds of mono- and dicotyledonous weed plants were placed in plastic pots in sandy loam soil (doubly sown with in each case one species of mono- or dicotyledonous weed plants per pot), covered with soil and cultivated in a greenhouse under controlled growth conditions. 2 to 3 weeks after sowing, the test plants were treated at the one-leaf stage. The compounds of the invention, formulated in the form of wettable powders (WP) or as emulsion concentrates (EC), were applied onto the green parts of the plants as aqueous suspension or emulsion with addition of 0.5% additive at a water application rate of 600 liters per hectare (converted). After the test plants had been kept in the greenhouse under optimum growth conditions for about 3 weeks, the activity of the preparations was rated visually in comparison to untreated controls.
(§2) For example, • 100% efficacy=plants have died, • 0% efficacy=like untreated control plants
(§3) Tables B1a to B12c below show the effects of selected inventive compounds of the general formula (I) according to table 1 on various harmful plants at an application rate corresponding to 1280 g/ha or less, which were obtained by the experimental procedure mentioned above.

Kochia scoparia (KCHSC) [2] = assay: A. Herbicidal pre-emergence efficacy, KCHSC
From the text: (§4) Seeds of mono- and dicotyledonous weed plants were placed in plastic pots in sandy loam soil (doubly sown with one species each of mono- or dicotyledonous weed plants per pot) and covered with soil. The compounds of the invention, formulated in the form of wettable powders (WP) or as emulsion concentrates (EC), were then applied onto the surface of the covering soil as aqueous suspension or emulsion with addition of 0.5% additive at a water application rate of 600 liters per hectare (converted). After the treatment, the pots were placed in a greenhouse and kept under good growth conditions for the test plants. After about 3 weeks, the efficacy of the preparations was scored visually in comparison with untreated controls as percentages.
(§5) For example, • 100% efficacy=plants have died, • 0% efficacy=like untreated control plants.
(§6) Tables A1a to A12c below show the effects of selected compounds of the general formula (I) according to table 1 on various harmful plants at an application rate corresponding to 1280 g/ha or less, which were obtained by the experimental procedure mentioned above.

[3] = test system: Amaranthus retroflexus (AMARE); assay: A. Herbicidal pre-emergence efficacy, AMARE
From the text: as §4, §5, §6

[4] = test system: Echinochloa crus-galli (ECHCG); assay: A. Herbicidal pre-emergence efficacy, ECHCG; conditions: scored visually after about 3 weeks vs untreated controls
From the text: as §4, §5, §6

[5] = test system: Abutilon theophrasti (ABUTH); assay: B. Herbicidal post-emergence efficacy, ABUTH; conditions: rated visually after about 3 weeks
Procedure: as §1, §2, §3

Poa annua (POAAN) [6] = assay: A. Herbicidal pre-emergence efficacy, POAAN
From the text: as §4, §5, §6

Poa annua (POAAN) [7] = assay: B. Herbicidal post-emergence efficacy, POAAN; conditions: 1280 g/ha
Procedure: as §1, §2, §3

[8] = test system: Echinochloa crus-galli (ECHCG); assay: B. Herbicidal post-emergence efficacy, ECHCG; conditions: 1280 g/ha, rated visually after about 3 weeks
Procedure: as §1, §2, §3

Setaria viridis (SETVI) = assay: A. Herbicidal pre-emergence efficacy, SETVI
From the text: as §4, §5, §6

Stellaria media (STEME) [9] = assay: B. Herbicidal post-emergence efficacy, STEME
Procedure: as §1, §2, §3

Veronica persica (VERPE) [10] = assay: B. Herbicidal post-emergence efficacy, VERPE
Procedure: as §1, §2, §3

[11] = test system: Digitaria sanguinalis (DIGSA); assay: A. Herbicidal pre-emergence efficacy, DIGSA; conditions: scored visually after about 3 weeks vs untreated controls
From the text: as §4, §5, §6

Kochia scoparia (KCHSC) [12] = assay: B. Herbicidal post-emergence efficacy, KCHSC; conditions: for Post-emergence efficacy against KCHSC in %: rated visually after about 3 weeks; for Post-emergence efficacy against KCHSC: 1280 g/ha
Procedure: as §1, §2, §3

Stellaria media (STEME) [13] = assay: A. Herbicidal pre-emergence efficacy, STEME
From the text: as §4, §5, §6

Veronica persica (VERPE) [14] = assay: A. Herbicidal pre-emergence efficacy, VERPE; conditions: 1280 g/ha
From the text: as §4, §5, §6

[15] = test system: Abutilon theophrasti (ABUTH); assay: A. Herbicidal pre-emergence efficacy, ABUTH; conditions: scored visually after about 3 weeks vs untreated controls
From the text: as §4, §5, §6

Lolium rigidum (LOLRI) = assay: A. Herbicidal pre-emergence efficacy, LOLRI; conditions: dosage 1280 g/ha
From the text: as §4, §5, §6

[16] = pre-emergence, dosage 1280 g/ha

| SMILES | Post-emergence efficacy against AMARE ([1]; 320 g/ha) [%] | Post-emergence efficacy against AMARE ([1]; 1280 g/ha) [%] | Pre-emergence efficacy against KCHSC (Kochia scoparia (KCHSC) [2]; [16]) [%] | Pre-emergence efficacy against AMARE in % ([3]; 320 g/ha) [%] | Pre-emergence efficacy against AMARE in % ([3]; 1280 g/ha) [%] | Pre-emergence efficacy against ECHCG ([4]; 1280 g/ha) [%] | Post-emergence efficacy against ABUTH in % ([5]; 320 g/ha) [%] | Post-emergence efficacy against ABUTH in % ([5]; 1280 g/ha) [%] | Pre-emergence efficacy against POAAN (Poa annua (POAAN) [6]; dosage 1280 g/ha) [%] | Post-emergence efficacy against POAAN (Poa annua (POAAN) [7]) [%] | Pre-emergence efficacy against SETVI (Setaria viridis (SETVI); dosage 1280 g/ha) [%] | Post-emergence efficacy against STEME (Stellaria media (STEME) [9]; 1280 g/ha) [%] | Post-emergence efficacy against VERPE (Veronica persica (VERPE) [10]; 80 g/ha) [%] | Post-emergence efficacy against VERPE (Veronica persica (VERPE) [10]; 320 g/ha) [%] | Post-emergence efficacy against VERPE (Veronica persica (VERPE) [10]; 1280 g/ha) [%] | Pre-emergence efficacy against DIGSA ([11]; 320 g/ha) [%] | Pre-emergence efficacy against DIGSA ([11]; 1280 g/ha) [%] | Post-emergence efficacy against KCHSC in % (Kochia scoparia (KCHSC) [12]; 320 g/ha) [%] | Post-emergence efficacy against KCHSC (Kochia scoparia (KCHSC) [12]) [%] | Pre-emergence efficacy against STEME (Stellaria media (STEME) [13]; dosage 1280 g/ha) [%] | also measured |
| --- | --- | --- | --- | --- | --- | --- | --- | --- | --- | --- | --- | --- | --- | --- | --- | --- | --- | --- | --- | --- | --- |
| O=S(=O)(CCCCl)Oc1ccccc1Oc1ncc(Cl)cc1F [Example I-64] | 90 | 90 | 90 | 90 | 100 | 100 | 90 | 90 | 100 | 90 | 100 | 90 | 90 | 90 | 90 | 90 | 100 | 90 | 90 | 90 | Post-emergence efficacy against AMARE ([1]; 80 g/ha): 90%; Post-emergence efficacy against ECHCG in % [8]: 90%; Post-emergence efficacy against KCHSC in % (Kochia scoparia (KCHSC) [12]; 80 g/ha): 90%; Pre-emergence efficacy against VERPE in % (Veronica persica (VERPE) [14]): 100% |
| CCC(C)S(=O)(=O)Oc1ccccc1Oc1ncc(Cl)cn1 (stereo not drawn) [Example I-22] | 90 | 100 | 100 | 90 | 100 | 90 | 90 | 100 | 90 | 90 | 100 | 90 | 90 | 100 | 100 | 100 | 100 | 90 | 100 | 100 | Pre-emergence efficacy against KCHSC (Kochia scoparia (KCHSC) [2]; pre-emergence, dosage 320 g/ha): 90%; Pre-emergence efficacy against AMARE in % ([3]; 80 g/ha): 90%; Pre-emergence efficacy against ECHCG ([4]; 320 g/ha): 90%; Pre-emergence efficacy against ABUTH ([15]; 320 g/ha): 100%; Pre-emergence efficacy against ABUTH ([15]; 1280 g/ha): 100%; Pre-emergence efficacy against SETVI (Setaria viridis (SETVI); dosage 320 g/ha): 90%; Post-emergence efficacy against STEME (Stellaria media (STEME) [9]; 80 g/ha): 90%; Post-emergence efficacy against STEME (Stellaria media (STEME) [9]; 320 g/ha): 90%; Post-emergence efficacy against KCHSC in % (Kochia scoparia (KCHSC) [12]; 80 g/ha): 90%; Pre-emergence efficacy against LOLRI (Lolium rigidum (LOLRI)): 90%; Pre-emergence efficacy against STEME (Stellaria media (STEME) [13]; dosage 80 g/ha): 100%; Pre-emergence efficacy against STEME (Stellaria media (STEME) [13]; dosage 320 g/ha): 100%; Pre-emergence efficacy against VERPE in % (Veronica persica (VERPE) [14]): 90% |
| Cc1cccc(Oc2ncc(Cl)cn2)c1OS(=O)(=O)CCCC(F)(F)C(F)(F)F [Example I-69] | 100 | 100 | 90 | 100 | 100 | 90 | 90 | 100 |  | 90 | 100 | 100 | 100 | 100 | 100 |  | 90 | 100 | 100 | 90 | Post-emergence efficacy against AMARE ([1]; 80 g/ha): 100%; Pre-emergence efficacy against AMARE in % ([3]; 80 g/ha): 90%; Post-emergence efficacy against ABUTH in % ([5]; 80 g/ha): 90%; Post-emergence efficacy against ECHCG in % [8]: 100%; Pre-emergence efficacy against ABUTH ([15]; 1280 g/ha): 90%; Post-emergence efficacy against STEME (Stellaria media (STEME) [9]; 320 g/ha): 90%; Post-emergence efficacy against KCHSC in % (Kochia scoparia (KCHSC) [12]; 80 g/ha): 90%; Pre-emergence efficacy against VERPE in % (Veronica persica (VERPE) [14]): 100% |
| O=S(=O)(Oc1ccccc1Oc1ncc(Cl)cn1)C1CCCC1 [Example I-19] | 90 | 100 | 90 | 100 | 100 | 90 | 90 | 90 | 90 | 90 | 100 | 100 | 90 | 90 | 100 | 100 | 100 | 90 | 100 | 100 | Pre-emergence efficacy against KCHSC (Kochia scoparia (KCHSC) [2]; pre-emergence, dosage 320 g/ha): 90%; Pre-emergence efficacy against AMARE in % ([3]; 80 g/ha): 90%; Post-emergence efficacy against ECHCG in % [8]: 90%; Pre-emergence efficacy against ABUTH ([15]; 320 g/ha): 90%; Pre-emergence efficacy against ABUTH ([15]; 1280 g/ha): 100%; Pre-emergence efficacy against SETVI (Setaria viridis (SETVI); dosage 320 g/ha): 90%; Post-emergence efficacy against STEME (Stellaria media (STEME) [9]; 80 g/ha): 90%; Post-emergence efficacy against STEME (Stellaria media (STEME) [9]; 320 g/ha): 100%; Pre-emergence efficacy against DIGSA ([11]; 80 g/ha): 100%; Pre-emergence efficacy against STEME (Stellaria media (STEME) [13]; dosage 320 g/ha): 100% |
| O=S(=O)(Oc1ccccc1Oc1ncc(Cl)cn1)C1CC1 [Example I-21] | 100 | 100 | 100 | 100 | 100 | 100 |  |  | 100 | 100 | 100 | 100 | 90 | 100 | 100 | 100 | 100 | 100 | 100 | 100 | Post-emergence efficacy against AMARE ([1]; 80 g/ha): 90%; Pre-emergence efficacy against KCHSC (Kochia scoparia (KCHSC) [2]; 80 g/ha, scored visually after about 3 weeks vs untreated controls): 90%; Pre-emergence efficacy against KCHSC (Kochia scoparia (KCHSC) [2]; pre-emergence, dosage 320 g/ha): 100%; Pre-emergence efficacy against AMARE in % ([3]; 80 g/ha): 100%; Pre-emergence efficacy against POAAN (Poa annua (POAAN) [6]; dosage 320 g/ha): 100%; Pre-emergence efficacy against ABUTH ([15]; 1280 g/ha): 100%; Post-emergence efficacy against STEME (Stellaria media (STEME) [9]; 320 g/ha): 90%; Post-emergence efficacy against KCHSC in % (Kochia scoparia (KCHSC) [12]; 80 g/ha): 90%; Pre-emergence efficacy against STEME (Stellaria media (STEME) [13]; dosage 320 g/ha): 100%; Pre-emergence efficacy against VERPE in % (Veronica persica (VERPE) [14]): 90% |
